Reference: US6737383B1, “Herbicidal oxadiazolidines” (priority 1999, dated 2004)

Legend:
surinam grass = assay: Test B pre/postemergence surinam grass; type: in vivo, Brachiaria decumbens
Procedure, shortened: (§1)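 Response is a visual 0-to-10 score relative to untreated plants, where 0 means no effect and 10 means complete control, taken twelve to sixteen days after application. Treatments went onto soil at planting and onto foliage of 1- to 4-leaf plants, using a surfactant-containing non-phytotoxic solvent.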

crabgrass = assay: Test B pre/postemergence crabgrass; type: in vivo, Digitaria sanguinalis
Procedure, shortened: as §1

cocklebur = assay: Test B pre/postemergence cocklebur; type: in vivo, Xanthium strumarium
Procedure, shortened: as §1

blackgrass = assay: Test B pre/postemergence blackgrass; type: in vivo, Alopecurus myosuroides
Procedure, shortened: as §1

wild oat = assay: Test B pre/postemergence wild oat; type: in vivo, Avena fatua
Procedure, shortened: as §1

soybean = assay: Test B pre/postemergence soybean; type: in vivo, Glycine max
Procedure, shortened: as §1

rape = assay: Test B pre/postemergence rape; type: in vivo, Brassica napus
Procedure, shortened: as §1

purple nutsedge = assay: Test B pre/postemergence purple nutsedge; type: in vivo, Cyperus rotundus
Procedure, shortened: as §1

giant foxtail = assay: Test B pre/postemergence giant foxtail; type: in vivo, Setaria faberii
Procedure, shortened: as §1

sugar beet = assay: Test B pre/postemergence sugar beet; type: in vivo, Beta vulgaris
Procedure, shortened: as §1

wheat = assay: Test B pre/postemergence wheat; type: in vivo, Triticum aestivum
Procedure, shortened: as §1

velvetleaf = assay: Test B pre/postemergence velvetleaf; type: in vivo, Abutilon theophrasti
Procedure, shortened: as §1

morningglory = assay: Test B pre/postemergence morningglory; type: in vivo, Ipomoea hederacea
Procedure, shortened: as §1

bedstraw = assay: Test B pre/postemergence bedstraw; type: in vivo, Galium aparine; conditions: Preemergence; for Bedstraw plant response rating: scale 0 to 10, 0 is no effect, 10 is complete control
Procedure, shortened: as §1

pigweed = assay: Test B pre/postemergence pigweed; type: in vivo, Amaranthus retroflexus
Procedure, shortened: as §1

corn = assay: Test B pre/postemergence corn; type: in vivo, Zea mays
Procedure, shortened: as §1

[1] = Postemergence, Rate 62 g/ha, scale of 0 to 10, 0 is no effect, 10 is complete control
[2] = Postemergence, Rate 125 g/ha, scale 0 to 10, 0 is no effect, 10 is complete control
[3] = Postemergence, Rate 500 g/ha, scale 0 to 10, 0 is no effect, 10 is complete control
[4] = Preemergence, Rate 62 g/ha, scale of 0 to 10 where 0 is no effect and 10 is complete control
[5] = Preemergence, Rate 125 g/ha, scale 0 to 10, 0 is no effect, 10 is complete control
[6] = Rate 250 g/ha, Postemergence, scale of 0 to 10 where 0 is no effect and 10 is complete control
[7] = Preemergence, Rate 500 g/ha, scale of 0 to 10 where 0 is no effect and 10 is complete control

CC(C)N(C(=O)n1oc(=O)n(COCc2ccccc2)c1=O)c1ccc(F)cc1F [Compound 520]
10: Crabgrass plant response rating (0 to 10 scale) (crabgrass; Preemergence, Rate 250 g/ha) | Crabgrass plant response rating (crabgrass; [7]) | Giant foxtail plant response rating (giant foxtail; [5]) | Giant foxtail plant response rating (0 to 10 scale) (giant foxtail; Preemergence, Rate 250 g/ha) | Giant foxtail plant response rating (giant foxtail; [7]) | Plant response rating, Morningglory (morningglory; [3])
0: B. signalgrass plant response rating (surinam grass; [1]) | B. signalgrass plant response rating (surinam grass; [2]) | Plant response rating, B. signalgrass (surinam grass; [4]) | B. signalgrass plant response rating (surinam grass; [5]) | B. signalgrass plant response rating (0 to 10 scale, 0 is no effect, 10 is complete control) (surinam grass; Preemergence, Rate 250 g/ha) | B. signalgrass plant response rating (surinam grass; Preemergence, Rate 500 g/ha, scale 0 to 10, 0 is no effect, 10 is complete control) | Plant response rating, B. signalgrass (surinam grass; [6]) | Cocklebur plant response rating (cocklebur; [1]) | Cocklebur plant response rating (cocklebur; [2]) | Plant response rating, Cocklebur (cocklebur; [3]) | Plant response rating, Cocklebur (cocklebur; [4]) | Cocklebur plant response rating (cocklebur; [5]) | Cocklebur plant response rating (0 to 10 scale) (cocklebur; Preemergence, Rate 250 g/ha) | Cocklebur plant response rating (cocklebur; [7]) | Plant response rating, Cocklebur (cocklebur; [6]) | Blackgrass plant response rating (blackgrass; [1]) | Blackgrass plant response rating (blackgrass; [2]) | Plant response rating, Blackgrass (blackgrass; [4]) | Blackgrass plant response rating (blackgrass; [5]) | Blackgrass plant response rating (0 to 10 scale) (blackgrass; Preemergence, Rate 250 g/ha) | Blackgrass plant response rating (blackgrass; [7]) | Plant response rating, Blackgrass (blackgrass; [6]) | Wild oats plant response rating (wild oat; [1]) | Wild oats plant response rating (wild oat; [2]) | Plant response rating, Wild oats (wild oat; [3]) | Plant response rating, Wild oats (wild oat; [4]) | Wild oats plant response rating (wild oat; [5]) | Wild oats plant response rating (0 to 10 scale) (wild oat; Preemergence, Rate 250 g/ha) | Wild oats plant response rating (wild oat; [7]) | Plant response rating, Wild oats (wild oat; [6]) | Plant response rating, Soybean (soybean; [4]) | Soybean plant response rating (soybean; [5]) | Soybean plant response rating (0 to 10 scale) (soybean; Preemergence, Rate 250 g/ha) | Soybean plant response rating (soybean; [7]) | Rape plant response rating (rape; [1]) | Rape plant response rating (rape; [2]) | Plant response rating, Rape (rape; [4]) | Rape plant response rating (rape; [5]) | Rape plant response rating (0 to 10 scale) (rape; Preemergence, Rate 250 g/ha) | Rape plant response rating (rape; [7]) | Plant response rating, Rape (rape; [6]) | Nutsedge plant response rating (purple nutsedge; [1]) | Nutsedge plant response rating (purple nutsedge; [2]) | Plant response rating, Nutsedge (purple nutsedge; [3]) | Plant response rating, Nutsedge (purple nutsedge; [4]) | Nutsedge plant response rating (purple nutsedge; [5]) | Nutsedge plant response rating (0 to 10 scale) (purple nutsedge; Preemergence, Rate 250 g/ha) | Nutsedge plant response rating (purple nutsedge; [7]) | Plant response rating, Nutsedge (purple nutsedge; [6]) | Sugarbeets plant response rating (sugar beet; [1]) | Sugarbeets plant response rating (sugar beet; [2]) | Plant response rating, Sugarbeets (sugar beet; [4]) | Sugarbeets plant response rating (sugar beet; [5]) | Sugarbeets plant response rating (0 to 10 scale) (sugar beet; Preemergence, Rate 250 g/ha) | Sugarbeets plant response rating (sugar beet; [7]) | Plant response rating, Sugarbeets (sugar beet; [6]) | Wheat plant response rating (wheat; [1]) | Wheat plant response rating (wheat; [2]) | Plant response rating, Wheat (wheat; [3]) | Plant response rating, Wheat (wheat; [4]) | Wheat plant response rating (wheat; [5]) | Wheat plant response rating (0 to 10 scale) (wheat; Preemergence, Rate 250 g/ha) | Wheat plant response rating (wheat; [7]) | Plant response rating, Wheat (wheat; [6]) | Plant response rating, Velvetleaf (velvetleaf; [4]) | Velvetleaf plant response rating (velvetleaf; [5]) | Velvetleaf plant response rating (0 to 10 scale) (velvetleaf; Preemergence, Rate 250 g/ha) | Velvetleaf plant response rating (velvetleaf; [7]) | Plant response rating, Morningglory (morningglory; [4]) | Morningglory plant response rating (morningglory; [5]) | Morningglory plant response rating (0 to 10 scale) (morningglory; Preemergence, Rate 250 g/ha) | Morningglory plant response rating (morningglory; [7]) | Plant response rating, Bedstraw (bedstraw; Rate 62 g/ha, scale of 0 to 10 where 0 is no effect and 10 is complete control) | Bedstraw plant response rating (bedstraw; Rate 125 g/ha) | Bedstraw plant response rating (0 to 10 scale) (bedstraw; Rate 250 g/ha) | Bedstraw plant response rating (bedstraw; Rate 500 g/ha) | Redroot pigweed plant response rating (pigweed; [1]) | Plant response rating, Redroot pigweed (pigweed; [3]) | Plant response rating, Redroot pigweed (pigweed; [4]) | Redroot pigweed plant response rating (pigweed; [5]) | Redroot pigweed plant response rating (0 to 10 scale) (pigweed; Preemergence, Rate 250 g/ha) | Redroot pigweed plant response rating (pigweed; [7]) | Corn plant response rating (corn; [1]) | Corn plant response rating (corn; [2]) | Plant response rating, Corn (corn; [3]) | Plant response rating, Corn (corn; [4]) | Corn plant response rating (corn; [5]) | Corn plant response rating (0 to 10 scale) (corn; Preemergence, Rate 250 g/ha) | Corn plant response rating (corn; [7]) | Plant response rating, Corn (corn; [6])
2: Plant response rating, B. signalgrass (surinam grass; [3]) | Crabgrass plant response rating (crabgrass; [1]) | Soybean plant response rating (soybean; [1]) | Giant foxtail plant response rating (giant foxtail; [1]) | Plant response rating, Sugarbeets (sugar beet; [3])
6: Plant response rating, Blackgrass (blackgrass; [3]) | Plant response rating, Velvetleaf (velvetleaf; [3])
4: Plant response rating, Crabgrass (crabgrass; [6]) | Soybean plant response rating (soybean; [2]) | Plant response rating, Soybean (soybean; [3]) | Plant response rating, Soybean (soybean; [6]) | Giant foxtail plant response rating (giant foxtail; [2]) | Plant response rating, Giant foxtail (giant foxtail; [6]) | Velvetleaf plant response rating (velvetleaf; [2]) | Plant response rating, Velvetleaf (velvetleaf; [6]) | Morningglory plant response rating (morningglory; [2]) | Plant response rating, Morningglory (morningglory; [6])
3: Crabgrass plant response rating (crabgrass; [2]) | Velvetleaf plant response rating (velvetleaf; [1]) | Morningglory plant response rating (morningglory; [1]) | Redroot pigweed plant response rating (pigweed; [2])
9: Plant response rating, Crabgrass (crabgrass; [3]) | Plant response rating, Crabgrass (crabgrass; [4]) | Crabgrass plant response rating (crabgrass; [5]) | Plant response rating, Rape (rape; [3]) | Plant response rating, Giant foxtail (giant foxtail; [3]) | Plant response rating, Giant foxtail (giant foxtail; [4])
